Laboratory results from PubChem BioAssay AID256 (DTP/NCI, 2004).
Inconclusive results and toxic doses are left out. How the source made its calls: active means survival T/C of 150% or more; inactive means T/C below 125% in these data.

System: CD2F1 mice, L1210 leukemia ip, survival T/C
Experiment: NCI In Vivo Anticancer Drug Screen. Data for tumor model L1210 Leukemia (intraperitoneal) in CD2F1 (CDF1) mice
Settings: higher = longer survival
Summary of the method: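 Implant tumor; dose compound or vehicle; measure endpoint in both groups; report treated divided by control.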

[1] = endpoint: mean survival time, dose: 100.0 mg/kg/injection, schedule: Q04DX002 (ip), vehicle: saline with Tween-80

Measured: T/C

O=C(O)CC(c1ccccc1)C(CC(=O)O)c1ccccc1.[NH-]C1CCCCC1[NH-].[Pt+2] (configuration not stated)
inactive: endpoint: median survival time, dose: 3.12 mg/kg/injection, schedule: Q04DX003 (ip), vehicle: saline with Tween-80 107 % of control | endpoint: median survival time, dose: 3.12 mg/kg/injection, schedule: Q04DX003 (ip), vehicle: saline 105 % of control | endpoint: median survival time, dose: 6.25 mg/kg/injection, schedule: Q04DX003 (ip), vehicle: saline with Tween-80 111 % of control | endpoint: median survival time, dose: 6.25 mg/kg/injection, schedule: Q04DX003 (ip), vehicle: saline 102 % of control | endpoint: median survival time, dose: 12.5 mg/kg/injection, schedule: Q04DX003 (ip), vehicle: saline with Tween-80 102 % of control | endpoint: median survival time, dose: 12.5 mg/kg/injection, schedule: Q04DX003 (ip), vehicle: saline 103 % of control | endpoint: median survival time, dose: 25.0 mg/kg/injection, schedule: Q04DX003 (ip), vehicle: saline with Tween-80 111 % of control | endpoint: median survival time, dose: 25.0 mg/kg/injection, schedule: Q04DX003 (ip), vehicle: saline 110 % of control | endpoint: median survival time, dose: 50.0 mg/kg/injection, schedule: Q04DX003 (ip), vehicle: saline with Tween-80 123 % of control | endpoint: median survival time, dose: 50.0 mg/kg/injection, schedule: Q04DX003 (ip), vehicle: saline 110 % of control | endpoint: median survival time, dose: 100.0 mg/kg/injection, schedule: Q04DX003 (ip), vehicle: saline 121 % of control

O=NN(Cc1cccnc1)Cc1cccnc1
inactive: endpoint: mean survival time, dose: 75.0 mg/kg/injection, schedule: Q01DX001 (ip), vehicle: water 102 % of control | endpoint: mean survival time, dose: 150.0 mg/kg/injection, schedule: Q01DX001 (ip), vehicle: water 102 % of control

C1CCc2nnnn2CC1
inactive: endpoint: mean survival time, dose: 12.5 mg/kg/injection, schedule: Q01DX009 (ip), vehicle: saline 98 % of control | endpoint: mean survival time, dose: 25.0 mg/kg/injection, schedule: Q01DX009 (ip), vehicle: saline 103 % of control | endpoint: mean survival time, dose: 50.0 mg/kg/injection, schedule: Q01DX009 (ip), vehicle: saline 95 % of control

CCCCCCCCCCCCCCCCOCCOCCOCCOCCOCCCCCCCCCCCCCCCC
inactive: [1] 94 % of control | endpoint: mean survival time, dose: 200.0 mg/kg/injection, schedule: Q04DX002 (ip), vehicle: saline with Tween-80 94 % of control | endpoint: mean survival time, dose: 400.0 mg/kg/injection, schedule: Q04DX002 (ip), vehicle: saline with Tween-80 98 % of control

O=P(CP(c1ccccc1)c1ccccc1)(c1ccccc1)c1ccccc1
inactive: endpoint: mean survival time, dose: 25.0 mg/kg/injection, schedule: Q04DX002 (ip), vehicle: saline with Tween-80 96 % of control | endpoint: mean survival time, dose: 50.0 mg/kg/injection, schedule: Q04DX002 (ip), vehicle: saline with Tween-80 92 % of control | [1] 92 % of control

Cn1c(=O)c2[nH]c(-c3ccccc3[N+](=O)[O-])nc2n(C)c1=O
inactive: endpoint: mean survival time, dose: 12.5 mg/kg/injection, schedule: Q01DX005 (ip), vehicle: other 97 % of control | endpoint: mean survival time, dose: 25.0 mg/kg/injection, schedule: Q01DX005 (ip), vehicle: other 94 % of control | endpoint: mean survival time, dose: 50.0 mg/kg/injection, schedule: Q01DX005 (ip), vehicle: other 90 % of control | endpoint: mean survival time, dose: 100.0 mg/kg/injection, schedule: Q01DX005 (ip), vehicle: other 96 % of control | endpoint: mean survival time, dose: 200.0 mg/kg/injection, schedule: Q01DX005 (ip), vehicle: other 94 % of control

C[S+](C)CC(=O)O
inactive: endpoint: mean survival time, dose: 100.0 mg/kg/injection, schedule: Q01DX009 (ip), vehicle: saline 97 % of control | endpoint: mean survival time, dose: 200.0 mg/kg/injection, schedule: Q01DX009 (ip), vehicle: saline 101 % of control | endpoint: mean survival time, dose: 400.0 mg/kg/injection, schedule: Q01DX009 (ip), vehicle: saline 92 % of control

N#Cc1nc2c(nc1N)CCCCCCCCCC2
inactive: endpoint: mean survival time, dose: 100.0 mg/kg/injection, schedule: Q01DX001 (ip), vehicle: Klucel (hydroxypropylcellulose) (HPC) 87 % of control | endpoint: mean survival time, dose: 200.0 mg/kg/injection, schedule: Q01DX001 (ip), vehicle: Klucel (hydroxypropylcellulose) (HPC) 87 % of control | endpoint: mean survival time, dose: 400.0 mg/kg/injection, schedule: Q01DX001 (ip), vehicle: Klucel (hydroxypropylcellulose) (HPC) 87 % of control

Cc1ccc(C2=C(c3ccc(C)cc3)CS(=O)(=O)C2)cc1
inactive: endpoint: mean survival time, dose: 100.0 mg/kg/injection, schedule: Q01DX001 (ip), vehicle: saline with Tween-80 92 % of control | endpoint: mean survival time, dose: 200.0 mg/kg/injection, schedule: Q01DX001 (ip), vehicle: saline with Tween-80 93 % of control | endpoint: mean survival time, dose: 400.0 mg/kg/injection, schedule: Q01DX001 (ip), vehicle: saline with Tween-80 92 % of control | endpoint: mean survival time, dose: 800.0 mg/kg/injection, schedule: Q01DX001 (ip), vehicle: saline with Tween-80 92 % of control
